Data as given in ChEMBL document CHEMBL3425500, “Perspective: Tyrosine phosphatases as novel targets for antiplatelet therapy” (Bioorg Med Chem, 2015).
Values belong to the molecule of their own block, whether it stands above or below them.

How the values were obtained:
[1] = molecular target: T1, Tyrosine-protein phosphatase non-receptor type 1 (Homo sapiens, UniProt P18031); test: Competitive inhibition of PTP1B (unknown origin)
T1 sequence (P18031 whole entry): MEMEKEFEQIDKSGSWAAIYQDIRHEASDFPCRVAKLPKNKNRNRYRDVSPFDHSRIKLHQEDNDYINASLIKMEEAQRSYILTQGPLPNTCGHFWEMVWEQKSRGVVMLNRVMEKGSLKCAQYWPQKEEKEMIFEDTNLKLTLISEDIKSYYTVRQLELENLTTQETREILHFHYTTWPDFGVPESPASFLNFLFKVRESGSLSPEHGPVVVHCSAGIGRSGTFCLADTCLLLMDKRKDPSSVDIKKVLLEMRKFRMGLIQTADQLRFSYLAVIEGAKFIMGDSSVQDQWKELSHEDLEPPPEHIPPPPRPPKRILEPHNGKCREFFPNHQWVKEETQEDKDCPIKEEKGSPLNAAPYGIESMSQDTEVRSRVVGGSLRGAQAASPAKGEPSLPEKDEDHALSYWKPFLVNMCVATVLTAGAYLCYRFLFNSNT

[2] = molecular target: T1, Tyrosine-protein phosphatase non-receptor type 1; test: Inhibition of recombinant PTP1B (unknown origin) using OMFP as substrate after 1 hr by fluorescence assay
[3] = molecular target: T2, Dual specificity protein phosphatase 6 (Homo sapiens, UniProt Q16828); test: Inhibition of recombinant MKP3 (unknown origin) using OMFP as substrate after 1 hr by fluorescence assay
T2 sequence (Q16828 whole entry): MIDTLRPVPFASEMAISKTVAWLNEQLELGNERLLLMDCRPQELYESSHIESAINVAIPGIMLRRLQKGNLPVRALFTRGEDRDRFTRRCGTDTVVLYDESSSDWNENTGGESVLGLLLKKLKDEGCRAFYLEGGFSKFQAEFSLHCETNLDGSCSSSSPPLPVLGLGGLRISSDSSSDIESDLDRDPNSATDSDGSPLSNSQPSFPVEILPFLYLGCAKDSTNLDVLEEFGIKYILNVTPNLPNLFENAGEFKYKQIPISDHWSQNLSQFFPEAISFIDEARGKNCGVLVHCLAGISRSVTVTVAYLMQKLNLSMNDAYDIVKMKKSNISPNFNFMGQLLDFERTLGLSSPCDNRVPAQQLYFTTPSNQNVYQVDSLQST

[4] = molecular target: T3, Tyrosine-protein phosphatase non-receptor type 22 (Homo sapiens, UniProt Q9Y2R2); test: Inhibition of recombinant LYP (unknown origin) using OMFP as substrate after 1 hr by fluorescence assay
T3 sequence (Q9Y2R2 whole entry): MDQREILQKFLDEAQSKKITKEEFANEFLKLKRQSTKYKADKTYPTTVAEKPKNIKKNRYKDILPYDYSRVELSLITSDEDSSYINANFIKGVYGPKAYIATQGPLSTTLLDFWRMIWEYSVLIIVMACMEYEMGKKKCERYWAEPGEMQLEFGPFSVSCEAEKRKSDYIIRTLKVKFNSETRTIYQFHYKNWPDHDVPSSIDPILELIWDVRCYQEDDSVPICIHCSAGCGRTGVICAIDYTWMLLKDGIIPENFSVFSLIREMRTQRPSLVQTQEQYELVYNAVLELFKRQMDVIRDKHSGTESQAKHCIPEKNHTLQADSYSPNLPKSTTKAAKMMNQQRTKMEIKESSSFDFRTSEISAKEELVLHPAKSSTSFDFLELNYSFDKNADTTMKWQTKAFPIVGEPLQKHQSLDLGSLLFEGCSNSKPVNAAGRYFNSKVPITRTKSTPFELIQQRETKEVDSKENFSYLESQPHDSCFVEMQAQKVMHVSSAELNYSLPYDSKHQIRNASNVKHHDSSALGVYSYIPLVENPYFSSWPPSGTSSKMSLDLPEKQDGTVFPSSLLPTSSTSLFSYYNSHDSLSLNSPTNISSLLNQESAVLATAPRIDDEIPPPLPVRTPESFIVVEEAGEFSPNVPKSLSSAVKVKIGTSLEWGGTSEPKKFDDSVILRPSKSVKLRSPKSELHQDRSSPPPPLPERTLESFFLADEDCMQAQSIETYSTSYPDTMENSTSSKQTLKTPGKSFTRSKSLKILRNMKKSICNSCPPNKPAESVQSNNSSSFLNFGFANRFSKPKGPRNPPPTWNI

[5] = molecular target: T4, Tyrosine-protein phosphatase non-receptor type 2 (Homo sapiens, UniProt P17706); test: Inhibition of recombinant TCPTP (unknown origin) using OMFP as substrate after 1 hr by fluorescence assay
T4 sequence (P17706 whole entry): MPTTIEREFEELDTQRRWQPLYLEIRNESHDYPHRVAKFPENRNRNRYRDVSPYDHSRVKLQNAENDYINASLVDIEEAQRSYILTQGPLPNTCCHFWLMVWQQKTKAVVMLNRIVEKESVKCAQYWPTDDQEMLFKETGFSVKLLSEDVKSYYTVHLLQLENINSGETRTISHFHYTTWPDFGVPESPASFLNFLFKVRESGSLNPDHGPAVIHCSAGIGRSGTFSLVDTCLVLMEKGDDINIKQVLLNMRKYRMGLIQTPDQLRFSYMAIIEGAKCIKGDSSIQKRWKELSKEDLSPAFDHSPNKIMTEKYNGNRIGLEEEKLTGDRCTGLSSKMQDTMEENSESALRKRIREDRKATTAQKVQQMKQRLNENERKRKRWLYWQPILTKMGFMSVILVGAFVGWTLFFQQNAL

[6] = molecular target: T5, Tyrosine-protein phosphatase non-receptor type 5 (Homo sapiens, UniProt P54829); test: Inhibition of recombinant STEP (unknown origin) using OMFP as substrate after 1 hr by fluorescence assay
T5 sequence (P54829 whole entry): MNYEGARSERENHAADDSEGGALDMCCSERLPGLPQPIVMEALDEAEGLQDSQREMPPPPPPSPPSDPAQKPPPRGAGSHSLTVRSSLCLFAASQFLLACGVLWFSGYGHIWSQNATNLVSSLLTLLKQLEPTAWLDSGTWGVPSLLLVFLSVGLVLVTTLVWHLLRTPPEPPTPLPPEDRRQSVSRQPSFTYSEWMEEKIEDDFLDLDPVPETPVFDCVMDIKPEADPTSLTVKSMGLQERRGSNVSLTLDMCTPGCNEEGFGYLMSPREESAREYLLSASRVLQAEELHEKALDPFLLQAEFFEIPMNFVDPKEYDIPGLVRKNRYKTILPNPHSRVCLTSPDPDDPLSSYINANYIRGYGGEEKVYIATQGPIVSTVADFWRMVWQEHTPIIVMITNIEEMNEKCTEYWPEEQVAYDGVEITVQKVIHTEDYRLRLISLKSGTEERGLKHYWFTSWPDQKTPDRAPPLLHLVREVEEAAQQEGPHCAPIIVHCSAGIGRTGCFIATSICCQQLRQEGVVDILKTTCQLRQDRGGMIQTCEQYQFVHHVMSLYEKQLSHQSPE

[7] = molecular target: T6, Dual specificity protein phosphatase 22 (Homo sapiens, UniProt Q9NRW4); test: Inhibition of recombinant VHX (unknown origin) using OMFP as substrate after 1 hr by fluorescence assay
T6 sequence (Q9NRW4 whole entry): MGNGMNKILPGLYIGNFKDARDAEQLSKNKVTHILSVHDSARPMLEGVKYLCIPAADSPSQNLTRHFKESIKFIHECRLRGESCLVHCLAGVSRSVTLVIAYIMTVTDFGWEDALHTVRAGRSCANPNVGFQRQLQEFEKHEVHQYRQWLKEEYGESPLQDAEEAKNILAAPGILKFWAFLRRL

[8] = molecular target: T7, Tyrosine-protein phosphatase non-receptor type 7 (Homo sapiens, UniProt P35236); test: Inhibition of recombinant HePTP (unknown origin) using OMFP as substrate after 1 hr by fluorescence assay
T7 sequence (P35236 whole entry): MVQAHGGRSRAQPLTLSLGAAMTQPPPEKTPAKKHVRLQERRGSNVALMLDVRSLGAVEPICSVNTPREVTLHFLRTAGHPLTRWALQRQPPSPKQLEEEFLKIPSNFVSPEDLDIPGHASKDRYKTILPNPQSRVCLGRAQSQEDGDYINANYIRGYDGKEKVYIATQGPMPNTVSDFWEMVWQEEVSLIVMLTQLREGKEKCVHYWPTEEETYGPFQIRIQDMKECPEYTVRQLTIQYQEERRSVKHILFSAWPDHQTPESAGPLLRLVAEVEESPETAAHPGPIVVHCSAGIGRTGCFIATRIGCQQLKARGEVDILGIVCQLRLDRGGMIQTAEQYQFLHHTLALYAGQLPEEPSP

[9] = molecular target: T8, Receptor-type tyrosine-protein phosphatase R (Homo sapiens, UniProt Q15256); test: Inhibition of recombinant PTP-SL (unknown origin) using OMFP as substrate after 1 hr by fluorescence assay
T8 sequence (Q15256 whole entry): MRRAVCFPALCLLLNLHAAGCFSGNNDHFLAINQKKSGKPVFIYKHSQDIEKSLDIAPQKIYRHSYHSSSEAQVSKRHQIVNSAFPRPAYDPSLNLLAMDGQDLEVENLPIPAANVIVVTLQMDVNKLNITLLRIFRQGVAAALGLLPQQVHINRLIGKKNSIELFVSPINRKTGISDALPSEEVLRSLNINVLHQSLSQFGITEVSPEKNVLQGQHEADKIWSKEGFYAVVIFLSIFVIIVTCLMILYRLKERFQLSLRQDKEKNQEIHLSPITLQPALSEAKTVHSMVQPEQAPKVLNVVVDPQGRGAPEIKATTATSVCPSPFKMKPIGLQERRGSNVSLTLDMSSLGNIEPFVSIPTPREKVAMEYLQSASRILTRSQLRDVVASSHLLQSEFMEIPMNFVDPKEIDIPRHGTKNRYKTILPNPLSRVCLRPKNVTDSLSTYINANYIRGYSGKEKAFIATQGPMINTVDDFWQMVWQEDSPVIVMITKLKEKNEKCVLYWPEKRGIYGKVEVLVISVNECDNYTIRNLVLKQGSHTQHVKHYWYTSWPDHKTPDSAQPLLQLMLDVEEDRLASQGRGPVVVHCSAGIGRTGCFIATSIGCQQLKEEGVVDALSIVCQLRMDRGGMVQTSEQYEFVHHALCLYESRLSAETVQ

[10] = molecular target: Receptor-type tyrosine-protein phosphatase F (Homo sapiens, UniProt P10586); test: Inhibition of recombinant LAR (unknown origin) using OMFP as substrate after 1 hr by fluorescence assay
[11] = molecular target: T9, Receptor-type tyrosine-protein phosphatase C (Homo sapiens, UniProt P08575); test: Inhibition of recombinant CD45 (unknown origin) using OMFP as substrate after 1 hr by fluorescence assay
T9 sequence (P08575 whole entry): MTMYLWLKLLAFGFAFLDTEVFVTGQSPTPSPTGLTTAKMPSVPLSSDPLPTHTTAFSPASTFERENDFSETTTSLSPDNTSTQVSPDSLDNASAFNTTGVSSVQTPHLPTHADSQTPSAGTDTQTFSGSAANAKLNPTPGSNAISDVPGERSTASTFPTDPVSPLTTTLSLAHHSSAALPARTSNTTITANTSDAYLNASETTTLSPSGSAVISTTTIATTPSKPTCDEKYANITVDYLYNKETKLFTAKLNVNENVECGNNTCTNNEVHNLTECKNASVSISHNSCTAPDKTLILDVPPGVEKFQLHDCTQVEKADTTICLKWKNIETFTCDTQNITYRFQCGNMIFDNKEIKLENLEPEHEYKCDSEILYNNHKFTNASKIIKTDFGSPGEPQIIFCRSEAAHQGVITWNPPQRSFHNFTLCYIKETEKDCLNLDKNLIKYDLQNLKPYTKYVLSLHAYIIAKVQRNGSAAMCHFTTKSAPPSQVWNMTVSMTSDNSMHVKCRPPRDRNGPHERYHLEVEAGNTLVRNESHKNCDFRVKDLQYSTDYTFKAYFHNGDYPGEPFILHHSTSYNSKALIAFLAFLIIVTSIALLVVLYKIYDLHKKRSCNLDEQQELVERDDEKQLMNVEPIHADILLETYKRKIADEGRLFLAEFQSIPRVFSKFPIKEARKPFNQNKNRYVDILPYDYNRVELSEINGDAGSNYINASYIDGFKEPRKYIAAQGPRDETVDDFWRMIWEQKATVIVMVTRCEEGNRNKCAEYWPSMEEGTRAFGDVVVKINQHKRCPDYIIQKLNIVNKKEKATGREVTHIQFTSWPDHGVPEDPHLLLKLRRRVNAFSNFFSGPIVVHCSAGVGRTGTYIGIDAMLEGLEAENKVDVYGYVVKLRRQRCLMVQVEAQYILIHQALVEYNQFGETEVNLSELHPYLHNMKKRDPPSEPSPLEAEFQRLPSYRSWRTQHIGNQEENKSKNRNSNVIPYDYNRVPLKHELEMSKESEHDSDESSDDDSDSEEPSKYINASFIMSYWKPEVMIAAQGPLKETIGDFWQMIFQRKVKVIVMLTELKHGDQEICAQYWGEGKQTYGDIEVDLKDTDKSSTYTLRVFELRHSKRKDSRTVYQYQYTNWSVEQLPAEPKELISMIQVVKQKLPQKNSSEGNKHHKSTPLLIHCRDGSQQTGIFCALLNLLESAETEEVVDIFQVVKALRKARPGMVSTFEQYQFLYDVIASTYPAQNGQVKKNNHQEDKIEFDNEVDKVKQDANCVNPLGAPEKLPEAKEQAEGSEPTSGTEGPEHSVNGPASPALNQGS

[12] = molecular target: T1, Tyrosine-protein phosphatase non-receptor type 1; test: Inhibition of recombinant human PTP1B assessed as hydrolysis of DiFMUP preincubated for 10 mins followed by DiFMUP addition measured after 5 mins by fluorescence assay
[13] = molecular target: Dual specificity protein phosphatase 3 (Homo sapiens, UniProt P51452); test: Inhibition of recombinant VHR (unknown origin) using OMFP as substrate after 1 hr by fluorescence assay
Chain of Dual specificity protein phosphatase 3 (P51452 whole entry): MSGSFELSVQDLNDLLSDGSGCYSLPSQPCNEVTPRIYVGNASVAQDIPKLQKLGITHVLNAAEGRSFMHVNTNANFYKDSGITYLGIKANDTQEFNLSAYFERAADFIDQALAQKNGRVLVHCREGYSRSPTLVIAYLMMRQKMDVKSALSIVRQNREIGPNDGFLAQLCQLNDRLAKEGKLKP

Chain of Receptor-type tyrosine-protein phosphatase F (P10586 whole entry): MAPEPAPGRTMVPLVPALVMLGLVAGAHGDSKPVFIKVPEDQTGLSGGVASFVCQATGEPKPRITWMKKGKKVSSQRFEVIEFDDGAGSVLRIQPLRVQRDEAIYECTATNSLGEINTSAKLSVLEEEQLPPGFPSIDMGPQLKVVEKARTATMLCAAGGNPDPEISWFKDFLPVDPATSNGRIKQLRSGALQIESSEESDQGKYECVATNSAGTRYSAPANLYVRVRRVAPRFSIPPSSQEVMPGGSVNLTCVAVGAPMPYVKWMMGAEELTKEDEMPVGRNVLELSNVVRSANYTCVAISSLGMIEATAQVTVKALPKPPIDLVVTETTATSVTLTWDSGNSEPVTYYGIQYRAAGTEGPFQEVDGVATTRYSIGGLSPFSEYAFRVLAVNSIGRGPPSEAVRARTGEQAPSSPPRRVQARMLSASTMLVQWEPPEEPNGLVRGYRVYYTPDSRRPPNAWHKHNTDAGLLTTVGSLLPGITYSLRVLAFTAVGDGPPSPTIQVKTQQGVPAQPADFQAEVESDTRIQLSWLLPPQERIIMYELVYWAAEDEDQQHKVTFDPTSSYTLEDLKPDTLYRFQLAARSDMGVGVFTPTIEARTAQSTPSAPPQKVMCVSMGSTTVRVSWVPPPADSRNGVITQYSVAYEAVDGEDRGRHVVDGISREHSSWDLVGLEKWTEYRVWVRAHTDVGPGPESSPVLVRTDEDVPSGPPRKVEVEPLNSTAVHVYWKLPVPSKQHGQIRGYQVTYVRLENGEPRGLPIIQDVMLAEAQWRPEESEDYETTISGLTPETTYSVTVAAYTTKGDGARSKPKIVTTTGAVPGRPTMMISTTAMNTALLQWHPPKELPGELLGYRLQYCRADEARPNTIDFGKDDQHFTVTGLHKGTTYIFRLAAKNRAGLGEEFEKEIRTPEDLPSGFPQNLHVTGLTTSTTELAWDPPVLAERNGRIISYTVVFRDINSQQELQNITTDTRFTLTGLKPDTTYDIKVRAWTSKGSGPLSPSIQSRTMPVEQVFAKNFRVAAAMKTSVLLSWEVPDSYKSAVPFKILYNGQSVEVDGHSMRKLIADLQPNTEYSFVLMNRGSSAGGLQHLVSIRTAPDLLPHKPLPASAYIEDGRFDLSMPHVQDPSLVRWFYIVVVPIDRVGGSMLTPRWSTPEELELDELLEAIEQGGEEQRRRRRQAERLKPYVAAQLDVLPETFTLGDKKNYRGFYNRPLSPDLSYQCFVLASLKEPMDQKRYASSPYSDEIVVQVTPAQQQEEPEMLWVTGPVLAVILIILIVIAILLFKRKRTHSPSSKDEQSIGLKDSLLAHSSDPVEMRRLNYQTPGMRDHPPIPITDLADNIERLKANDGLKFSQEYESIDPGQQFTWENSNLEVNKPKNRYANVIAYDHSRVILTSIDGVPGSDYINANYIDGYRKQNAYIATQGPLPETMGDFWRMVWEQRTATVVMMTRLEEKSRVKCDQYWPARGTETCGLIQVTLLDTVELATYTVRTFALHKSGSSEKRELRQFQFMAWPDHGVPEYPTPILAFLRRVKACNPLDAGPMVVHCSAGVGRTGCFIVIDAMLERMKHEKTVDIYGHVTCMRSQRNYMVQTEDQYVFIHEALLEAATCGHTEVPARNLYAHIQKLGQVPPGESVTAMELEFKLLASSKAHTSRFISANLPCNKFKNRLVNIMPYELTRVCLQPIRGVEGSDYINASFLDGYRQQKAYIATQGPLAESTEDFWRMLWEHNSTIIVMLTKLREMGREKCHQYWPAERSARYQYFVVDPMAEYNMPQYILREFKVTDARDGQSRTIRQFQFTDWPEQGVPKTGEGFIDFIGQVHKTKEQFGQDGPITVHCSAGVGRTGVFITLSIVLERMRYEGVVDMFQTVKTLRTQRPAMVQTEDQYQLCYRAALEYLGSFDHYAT

- Ki [1]: 0.026 µM
Structure (SMILES): CCCCCCCCCCCCCCC(=O)N[C@@H](Cc1ccc(C(F)(F)P(=O)(O)O)cc1)C(=O)N[C@@H](CC(=O)O)C(=O)N[C@@H](Cc1ccc(C(F)(F)P(=O)(O)O)cc1)C(N)=O

- IC50 [2]: > 100 µM
- IC50 [3]: > 100 µM
- IC50 [4]: 49 µM
- IC50 [5]: 55 µM
- IC50 [6]: > 100 µM
- IC50 [7]: 26 µM
- IC50 [8]: 38 µM
- IC50 [9]: 13 µM
- IC50 [10]: > 100 µM
- IC50 [11]: > 100 µM
Structure (SMILES): COc1ccc(-c2nnc(Nc3nc4c(F)cccc4s3)o2)cc1

- IC50 [12]: 0.24 µM
Structure (SMILES): CN1C(=O)/C(=C\c2ccc(OCc3ccc(C4CCCCC4)cc3)cc2)S/C1=N/c1ccc(CC(=O)O)cc1

- IC50 [13]: 2.68 µM
Structure (SMILES): COc1ccc(-c2nnc(Nc3nc4c(OC)cccc4s3)o2)cc1
